Results published in patent US20230167414A1, “METHODS FOR ISOLATING AND CULTURING TUMOR CELLS” (Georgetown University, priority 2020, published 2023).

Experiments:
the cells = test: Culture conditions described herein with upstream/downstream ROCK pathway inhibitor in place of a ROCK inhibitor; type: cell-based; settings: used in the culture conditions in place of a ROCK inhibitor
Excerpt: As used herein, inhibiting ROCK can mean to reduce the activity, function, or expression of at least one of ROCK1 or ROCK2. […] In general, ROCK phosphorylates LEVI kinase and myosin light chain (MLC) phosphatase after being activated through binding of GTP-bound Rho. One embodiment of the present invention thus involves blocking the upstream pathway of ROCK1 and/or ROCK2, for example GTP-bound Rho, such that ROCK1 and/or ROCK2 is not activated or its activity is reduced over untreated cells. Other upstream effectors include, but are not limited to, integrins, growth factor receptors, including but not limited to, TGF-beta and EGFR, cadherins, G protein coupled receptors and the like. Another embodiment of the present invention thus involves blocking the activity, function, or expression of downstream effector molecules of activated ROCK1 and/or ROCK2 such that ROCK1 and/or ROCK2 cannot propagate any signal or can only propagate a reduced signal over untreated cells. Downstream effectors include, but are not limited to, myosin phosphatase-targeting protein (MYPT), vimentin, LIMK, myosin light chain kinase, NHE1, cofilin, Myosin II and the like.

airway epithelial cells = settings: cited from earlier work

| Compound | effect on cells (differentiation / proliferation in vitro) (the cells) | effect of inhibition on airway epithelial cells (airway epithelial cells) |
| --- | --- | --- |
| C3 transferase | allow the cells to bypass differentiation and allow proliferation in vitro |  |
| Cc1ccc2c(c1)C(=O)C1(O)CCN(c3ccccc3)C1=N2 (stereo not shown) [blebbistatin] | allow the cells to bypass differentiation and allow proliferation in vitro |  |
| C[C@@H](N)[C@H]1CC[C@H](C(=O)Nc2ccncc2)CC1 [Y-27632] |  | induces membrane ruffling, loss of actin stress fibers and apoptosis |
| O=S(=O)(c1cccc2cnccc12)N1CCCNCC1 [HA 1077, fasudil] |  | induces membrane ruffling, loss of actin stress fibers and apoptosis |
